Laboratory results as given in patent US10765764B2, “Probes for imaging huntingtin protein” (CHDI Foundation, Inc., priority 2015, dated 2020).

Molecular target: T1, Q46 protein aggregates (Homo sapiens, UniProt P42858)
T1 construct: fused on or other part: An N-terminal GST tag, cleaved off with thrombin before the assay to trigger aggregation
Assay: Q46 Radioligand Binding Assay (RBA), displacement of [^3H3]MK-3328
Details: 10 nM [^3H3]MK-3328, 5 μM Q46 protein aggregates
Description: For radioligand binding assays (RBA) GST-Q46 protein was generated based on a previous publication (Scherzinger et al. Cell, Vol. 90, 549-558, Aug. 8, 1997). For experiments 33 μM GST-Q46 was incubated with 150 μg/mL thrombin in assay buffer (150 mM NaCl, 50 mM Tris pH 8.0) and 2 mM CaCl2 for 16 hours at 37° C. Aggregated Q46 was pelleted by centrifugation for 5 minutes at 13,000 rpm in a bench top centrifuge and re-dissolved in the same volume of assay buffer. Test compounds were prepared by titration in DMSO at 11 concentrations from 33 μM to 1 nM. For the RBA, Q46 protein aggregates and test compounds were pre-incubated in assay buffer for 20 minutes at room temperature, in 140 μL/well in a 96-well plate (pp, round bottom). Then, ligand was added in 10 μL/well and incubated for 60 minutes at 37° C. Final assay concentrations were 1 μM to 30 pM test compound, 5 μM Q46 protein (equivalent monomer concentration) and 10 nM ligand [^3H3]MK-3328 (Harrision et al., ACS Med. Chem. Lett., 2 (2011), pp 498-502). Samples were transferred onto GF/B filter plates and washed 2× with 200 μL PBS using a Filtermate Harvester. After drying filter plates for 1 hour at 37° C., the back of the plates was sealed with foil and 30 μl/well scintillation fluid (Packard MicroScint 40) was added, incubated for incubated for 15 minutes in the dark and counted in a TopCount reader. For analysis, replicate data from independent assay plates were normalized towards 0% and 100% inhibition using control wells of vehicle (0% inhibition) and 3 μM unlabelled MK-3328 (100% inhibition). IC50 values were determined with a sigmoidal inhibition model with four variables (top, bottom, slope, IC50) in a global fit using the normalized replicate data.

T1 sequence (P42858 with tags, fused parts or gaps with the stated changes, form open): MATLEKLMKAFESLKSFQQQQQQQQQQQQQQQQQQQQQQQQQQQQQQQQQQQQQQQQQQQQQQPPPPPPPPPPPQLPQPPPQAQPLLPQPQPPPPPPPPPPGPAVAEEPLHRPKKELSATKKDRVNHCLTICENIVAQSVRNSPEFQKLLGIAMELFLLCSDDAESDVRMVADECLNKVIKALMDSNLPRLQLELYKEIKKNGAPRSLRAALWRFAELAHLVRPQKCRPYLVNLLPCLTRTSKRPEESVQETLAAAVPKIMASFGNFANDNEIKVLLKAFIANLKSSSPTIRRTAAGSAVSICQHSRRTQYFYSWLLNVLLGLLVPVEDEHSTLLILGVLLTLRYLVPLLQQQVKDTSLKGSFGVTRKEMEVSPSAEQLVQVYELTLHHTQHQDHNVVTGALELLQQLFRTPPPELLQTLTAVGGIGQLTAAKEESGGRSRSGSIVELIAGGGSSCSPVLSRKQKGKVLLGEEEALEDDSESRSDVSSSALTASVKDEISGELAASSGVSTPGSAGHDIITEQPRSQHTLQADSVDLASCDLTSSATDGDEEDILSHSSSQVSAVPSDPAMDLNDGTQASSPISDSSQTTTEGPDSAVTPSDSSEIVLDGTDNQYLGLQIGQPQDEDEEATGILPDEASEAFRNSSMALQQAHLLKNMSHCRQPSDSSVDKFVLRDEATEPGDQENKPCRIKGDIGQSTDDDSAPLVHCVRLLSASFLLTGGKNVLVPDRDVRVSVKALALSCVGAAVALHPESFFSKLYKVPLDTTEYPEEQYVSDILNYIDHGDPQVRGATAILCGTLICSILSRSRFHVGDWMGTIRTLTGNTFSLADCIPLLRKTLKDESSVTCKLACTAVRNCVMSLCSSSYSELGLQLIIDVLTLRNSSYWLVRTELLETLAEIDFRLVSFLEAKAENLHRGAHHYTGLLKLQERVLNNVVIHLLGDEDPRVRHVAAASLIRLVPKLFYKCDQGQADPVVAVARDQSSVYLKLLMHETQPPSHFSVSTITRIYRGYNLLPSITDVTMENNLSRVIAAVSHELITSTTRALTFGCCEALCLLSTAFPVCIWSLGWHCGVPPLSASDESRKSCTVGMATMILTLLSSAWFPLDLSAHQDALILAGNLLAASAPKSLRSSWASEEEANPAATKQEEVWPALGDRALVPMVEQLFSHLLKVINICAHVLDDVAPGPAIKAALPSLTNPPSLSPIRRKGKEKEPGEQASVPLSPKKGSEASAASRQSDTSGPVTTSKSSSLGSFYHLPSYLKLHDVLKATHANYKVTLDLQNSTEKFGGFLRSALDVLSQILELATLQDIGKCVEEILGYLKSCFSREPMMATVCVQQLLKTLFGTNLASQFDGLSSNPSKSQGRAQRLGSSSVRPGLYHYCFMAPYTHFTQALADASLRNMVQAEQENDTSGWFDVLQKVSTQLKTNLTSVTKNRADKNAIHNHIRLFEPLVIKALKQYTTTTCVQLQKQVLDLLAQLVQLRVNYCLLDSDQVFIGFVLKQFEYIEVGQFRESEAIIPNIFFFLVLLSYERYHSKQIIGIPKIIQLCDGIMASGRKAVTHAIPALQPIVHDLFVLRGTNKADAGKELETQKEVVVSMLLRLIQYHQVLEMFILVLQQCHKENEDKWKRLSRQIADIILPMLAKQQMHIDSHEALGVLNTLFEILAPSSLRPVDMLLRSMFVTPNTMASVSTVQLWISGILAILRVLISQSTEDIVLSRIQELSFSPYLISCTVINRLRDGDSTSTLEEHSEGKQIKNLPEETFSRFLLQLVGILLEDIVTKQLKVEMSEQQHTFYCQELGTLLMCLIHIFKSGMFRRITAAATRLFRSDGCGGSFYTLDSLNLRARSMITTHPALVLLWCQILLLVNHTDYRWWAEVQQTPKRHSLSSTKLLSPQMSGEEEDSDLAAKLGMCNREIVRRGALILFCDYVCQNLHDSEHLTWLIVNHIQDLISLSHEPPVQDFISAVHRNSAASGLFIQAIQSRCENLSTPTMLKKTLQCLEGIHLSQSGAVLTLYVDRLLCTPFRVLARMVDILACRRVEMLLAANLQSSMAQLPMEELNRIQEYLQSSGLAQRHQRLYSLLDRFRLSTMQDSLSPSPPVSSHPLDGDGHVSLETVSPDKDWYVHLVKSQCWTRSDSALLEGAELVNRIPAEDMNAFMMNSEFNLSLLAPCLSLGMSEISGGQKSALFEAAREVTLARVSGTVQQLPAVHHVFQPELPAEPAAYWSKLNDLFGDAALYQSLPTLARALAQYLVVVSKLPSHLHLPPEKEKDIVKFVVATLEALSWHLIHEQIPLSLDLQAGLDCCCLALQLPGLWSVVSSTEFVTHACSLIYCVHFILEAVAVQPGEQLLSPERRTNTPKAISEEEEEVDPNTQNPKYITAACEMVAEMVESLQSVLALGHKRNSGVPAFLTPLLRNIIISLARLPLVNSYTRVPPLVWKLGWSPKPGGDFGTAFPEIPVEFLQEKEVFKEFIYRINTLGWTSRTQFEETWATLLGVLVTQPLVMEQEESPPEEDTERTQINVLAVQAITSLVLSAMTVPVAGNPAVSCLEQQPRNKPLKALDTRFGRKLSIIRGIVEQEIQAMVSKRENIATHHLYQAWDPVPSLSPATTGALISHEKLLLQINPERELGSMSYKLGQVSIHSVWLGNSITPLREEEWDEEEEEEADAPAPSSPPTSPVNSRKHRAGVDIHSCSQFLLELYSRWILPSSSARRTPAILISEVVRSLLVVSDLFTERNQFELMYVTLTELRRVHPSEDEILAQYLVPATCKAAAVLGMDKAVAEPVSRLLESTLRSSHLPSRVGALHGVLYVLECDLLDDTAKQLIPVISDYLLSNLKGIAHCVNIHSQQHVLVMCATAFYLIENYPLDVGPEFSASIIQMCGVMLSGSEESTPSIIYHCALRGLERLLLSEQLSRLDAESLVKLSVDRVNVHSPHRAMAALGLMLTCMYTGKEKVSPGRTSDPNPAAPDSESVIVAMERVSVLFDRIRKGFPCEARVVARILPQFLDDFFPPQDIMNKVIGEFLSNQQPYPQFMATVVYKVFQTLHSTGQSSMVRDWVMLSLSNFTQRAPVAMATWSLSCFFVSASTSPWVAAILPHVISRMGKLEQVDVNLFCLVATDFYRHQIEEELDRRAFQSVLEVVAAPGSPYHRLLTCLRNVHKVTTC

| SMILES | IC50 [nM] |
| --- | --- |
| COc1ccc2c(c1)sc1nc(C(=O)Nc3cncnc3)cn12 [10-methoxy-N-(pyrimidin-5-yl)-7-thia-2,5-diazatricyclo[6.4.0.0^2,6]dodeca-1(12),3,5,8,10-pentaene-4-carboxamide] | < 100 |
| COc1ccc2c(c1)sc1nc(C(=O)Nc3ccc(-c4cccnc4)cn3)cn12 [10-methoxy-N-[5-(pyridin-3-yl)pyridin-2-yl]-7-thia-2,5-diazatricyclo[6.4.0.0^2,6]dodeca-1(12),3,5,8,10-pentaene-4-carboxamide] | < 100 |
| COc1ccc2c(c1)sc1nc(C(=O)N(C)c3cccnc3)cn12 [10-methoxy-N-methyl-N-(pyridin-3-yl)-7-thia-2,5-diazatricyclo[6.4.0.0^2,6]dodeca-1(12),3,5,8,10-pentaene-4-carboxamide] | 100 to 500 |
| CNCc1cccc(NC(=O)c2cn3c(n2)sc2cc(OC)ccc23)c1 [10-methoxy-N-{3-[(methylamino)methyl]phenyl}-7-thia-2,5-diazatricyclo[6.4.0.0^2,6]dodeca-1(8),3,5,9,11-pentaene-4-carboxamide] | < 100 |
| COc1cnc2sc3nc(C(=O)Nc4ccc(=O)n(C)n4)cn3c2c1 [11-methoxy-N-(1-methyl-6-oxo-1,6-dihydropyridazin-3-yl)-7-thia-2,5,9-triazatricyclo[6.4.0.0^2,6]dodeca-1(12),3,5,8,10-pentaene-4-carboxamide] | < 100 |
| COc1cncc(NC(=O)c2cn3c(n2)sc2ncc(OC)cc23)c1 [11-methoxy-N-(5-methoxypyridin-3-yl)-7-thia-2,5,9-triazatricyclo[6.4.0.0^2,6]dodeca-1(12),3,5,8,10-pentaene-4-carboxamide] | < 100 |
| COc1ccc2c(c1)sc1nc(C(=O)Nc3ccc4occc4c3)cn12 [N-(1-benzofuran-5-yl)-10-methoxy-7-thia-2,5-diazatricyclo[6.4.0.0^2,6]dodeca-1(12),3,5,8,10-pentaene-4-carboxamide] | < 100 |
| Cn1cc(NC(=O)c2ccn3c(n2)nc2ccccc23)ccc1=O [N-(1-methyl-6-oxo-1,6-dihydropyridin-3-yl)-1,8,10-triazatricyclo[7.4.0.0^2,7]trideca-2(7),3,5,8,10,12-hexaene-11-carboxamide] | 100 to 500 |
| COc1cc(NC(=O)c2ccn3c(n2)nc2ccccc23)ccn1 [N-(2-methoxypyridin-4-yl)-1,8,10-triazatricyclo[7.4.0.0^2,7]trideca-2(7),3,5,8,10,12-hexaene-11-carboxamide] | < 100 |
| COc1nccc(NC(=O)c2ccn3c(n2)nc2ccccc23)c1C#N [N-(3-cyano-2-methoxypyridin-4-yl)-1,8,10-triazatricyclo[7.4.0.0^2,7]trideca-2(7),3,5,8,10,12-hexaene-11-carboxamide] | < 100 |
| N#Cc1cnccc1NC(=O)c1ccn2c(n1)nc1ccccc12 [N-(3-cyanopyridin-4-yl)-1,8,10-triazatricyclo[7.4.0.0^2,7]trideca-2(7),3,5,8,10,12-hexaene-11-carboxamide] | < 100 |
| COc1cncc(NC(=O)c2cn3c(n2)sc2ccccc23)c1 [N-(5-methoxypyridin-3-yl)-7-thia-2,5-diazatricyclo[6.4.0.0^2,6]dodeca-1(12),3,5,8,10-pentaene-4-carboxamide] | < 100 |
| COc1cncc(NC(=O)c2cn3c(n2)sc2cc(-c4ccccc4)ccc23)c1 [N-(5-methoxypyridin-3-yl)-10-phenyl-7-thia-2,5-diazatricyclo[6.4.0.0^2,6]dodeca-1(12),3,5,8,10-pentaene-4-carboxamide] | < 100 |
| COc1ccc2c(c1)sc1nc(C(=O)Nc3ccc(F)nc3)cn12 [N-(6-fluoropyridin-3-yl)-10-methoxy-7-thia-2,5-diazatricyclo[6.4.0.0^2,6]dodeca-1(12),3,5,8,10-pentaene-4-carboxamide] | < 100 |
| COc1ccc(NC(=O)c2ccn3c(n2)nc2ccccc23)cn1 [N-(6-methoxypyridin-3-yl)-1,8,10-triazatricyclo[7.4.0.0^2,7]trideca-2(7),3,5,8,10,12-hexaene-11-carboxamide] | < 100 |
| O=C(Nc1ccc(=O)[nH]n1)c1ccn2c(n1)nc1ccccc12 [N-(6-oxo-1,6-dihydropyridazin-3-yl)-1,8,10-triazatricyclo[7.4.0.0^2,7]trideca-2(7),3,5,8,10,12-hexaene-11-carboxamide] | < 100 |
| O=C(Nc1cccnc1)c1ccn2c(n1)nc1ccccc12 [N-(pyridin-3-yl)-1,8,10-triazatricyclo[7.4.0.0^2,7]trideca-2(7),3,5,8,10,12-hexaene-11-carboxamide] | > 500 |
| COc1ccc2c(c1)sc1nc(C(=O)NCCN(C)C)cn12 [N-[2-(dimethylamino)ethyl]-10-methoxy-7-thia-2,5-diazatricyclo[6.4.0.0^2,6]dodeca-1(12),3,5,8,10-pentaene-4-carboxamide] | 100 to 500 |
| COCCOc1cncc(NC(=O)c2ccn3c(n2)nc2ccccc23)c1 [N-[5-(2-methoxyethoxy)pyridin-3-yl]-1,8,10-triazatricyclo[7.4.0.0^2,7]trideca-2(7),3,5,8,10,12-hexaene-11-carboxamide] | < 100 |

Now from value to molecule:

| IC50 [nM] | SMILES |
| --- | --- |
| < 100 | CNC(=O)c1ccc(NC(=O)c2cn3c(n2)sc2cc(OC)ccc23)cn1 [10-methoxy-N-[6-(methylcarbamoyl)pyridin-3-yl]-7-thia-2,5-diazatricyclo[6.4.0.0^2,6]dodeca-1(12),3,5,8,10-pentaene-4-carboxamide] |
| < 100 | COc1cncc(NC(=O)c2cn3c(n2)sc2ncc(Br)cc23)c1 [11-bromo-N-(5-methoxypyridin-3-yl)-7-thia-2,5,9-triazatricyclo[6.4.0.0^2,6]dodeca-1(12),3,5,8,10-pentaene-4-carboxamide] |
| < 100 | COc1cncc(NC(=O)c2ccn3c(n2)nc2ccc(-c4cncc(OC)c4)cc23)c1 [N,4-bis(5-methoxypyridin-3-yl)-1,8,10-triazatricyclo[7.4.0.0^2,7]trideca-2(7),3,5,8,10,12-hexaene-11-carboxamide] |
| < 100 | COc1cncc(NC(=O)c2ccn3c(n2)nc2cc(-c4cncc(OC)c4)ccc23)c1 [N,5-bis(5-methoxypyridin-3-yl)-1,8,10-triazatricyclo[7.4.0.0^2,7]trideca-2(7),3,5,8,10,12-hexaene-11-carboxamide] |
| < 100 | Cn1cc(NC(=O)c2ccn3c(n2)nc2ccccc23)cnc1=O [N-(1-methyl-2-oxo-1,2-dihydropyrimidin-5-yl)-1,8,10-triazatricyclo[7.4.0.0^2,7]trideca-2(7),3,5,8,10,12-hexaene-11-carboxamide] |
| < 100 | Cn1nc(NC(=O)c2ccn3c(n2)nc2ccccc23)ccc1=O [N-(1-methyl-6-oxo-1,6-dihydropyridazin-3-yl)-1,8,10-triazatricyclo[7.4.0.0^2,7]trideca-2(7),3,5,8,10,12-hexaene-11-carboxamide] |
| < 100 | C=CCOc1ccc2c(c1)sc1nc(C(=O)Nc3ccc(=O)n(C)n3)cn12 [N-(1-methyl-6-oxo-1,6-dihydropyridazin-3-yl)-10-(prop-2-en-1-yloxy)-7-thia-2,5-diazatricyclo[6.4.0.0^2,6]dodeca-1(12),3,5,8,10-pentaene-4-carboxamide] |
| < 100 | COc1ccc2c(c1)nc1nc(C(=O)Nc3ccncc3C#N)ccn12 [N-(3-cyanopyridin-4-yl)-5-methoxy-1,8,10-triazatricyclo[7.4.0.0^2,7]trideca-2(7),3,5,8,10,12-hexaene-11-carboxamide] |
| < 100 | COc1cc(NC(=O)c2ccn3c(n2)nc2ccccc23)cnc1OC [N-(5,6-dimethoxypyridin-3-yl)-1,8,10-triazatricyclo[7.4.0.0^2,7]trideca-2(7),3,5,8,10,12-hexaene-11-carboxamide] |
| < 100 | COc1cncc(NC(=O)c2ccn3c(n2)nc2ccccc23)c1 [N-(5-methoxypyridin-3-yl)-1,8,10-triazatricyclo[7.4.0.0^2,7]trideca-2(7),3,5,8,10,12-hexaene-11-carboxamide] |
| < 100 | O=C(Nc1ccc(F)nc1)c1ccn2c(n1)nc1ccccc12 [N-(6-fluoropyridin-3-yl)-1,8,10-triazatricyclo[7.4.0.0^2,7]trideca-2(7),3,5,8,10,12-hexaene-11-carboxamide] |
| < 100 | O=C(Nc1ccc(=O)[nH]c1)c1ccn2c(n1)nc1ccccc12 [N-(6-oxo-1,6-dihydropyridin-3-yl)-1,8,10-triazatricyclo[7.4.0.0^2,7]trideca-2(7),3,5,8,10,12-hexaene-11-carboxamide] |
| > 500 | COc1ccc2c(c1)sc1nc(CNc3cccnc3)cn12 [N-({10-methoxy-7-thia-2,5-diazatricyclo[6.4.0.0^2,6]dodeca-1(12),3,5,8,10-pentaen-4-yl}methyl)pyridin-3-amine] |
| < 100 | COc1ccc2c(c1)nc1nc(C(=O)Nc3ccc(-n4ccnc4)nc3)ccn12 [N-[6-(1H-imidazol-1-yl)pyridin-3-yl]-5-methoxy-1,8,10-triazatricyclo[7.4.0.0^2,7]trideca-2(7),3,5,8,10,12-hexaene-11-carboxamide] |
